Measured values reported in publication PMC9452538, “The antimicrobial peptide LI14 combats multidrug-resistant bacterial infections” (Communications Biology, 2022).
In brackets after ≈: the same amount, converted by molar mass. Read-outs that look alike come from different tables or passages of the source. Peptide text beside a SMILES is read from it.

What was measured:
MRSA T144 [1] = format: cell-based, Staphylococcus aureus; settings: MRSA T144
Description: MRSA T144 and E. coli B2 in the exponential growth phase were incubated with LI14 peptide supplemented with 10 mM Na^+, K^+, Mg^2+, 10% Dulbecco’s modified Eagle medium (DMEM), and 10% fetal bovine serum (FBS) for 16–18 h. The stability of LI14 was evaluated by the change of its antibacterial activity under different conditions.
LI14 were preincubated for 1 h at various temperatures (40–121 °C), pH (2–12), and proteases (pepsin, trypsin, and papain, final concentration 1 mg/mL). […] Following the incubation with the proteases, the leftover protease was precipitated with acetonitrile and removed by centrifugation at 3000 × g, followed by a MIC test.
Supplementary Table 4 Thermal, pH, salts and protease stability of AMPs against
MRSA T144 and E. coli B2 (MIC, μg/mL).
Treatment MRSA T144 E. coli B2

MRSA T144 or E. coli B2 = assay: Rat skin wound infection model; format: in vivo, rats; settings: MRSA T144 or E. coli B2 infected skin wound; LI14 5 or 10 μg topically; 8 days; n = 4
Description: The rats (n = 4 biologically independent animals per group) were anesthetized and a 2 cm wound model was constructed on their back. Then, 100 μL of MRSA T144 or E. coli B2 cultures were dropped on the wounds (10^6 CFUs per mouse), respectively. At 1 h post-infection, 100 μL of LI14 peptide (5 or 10 μg), or the combination of LI14 peptide with ampicillin/rifampicin (5 + 5 μg) were gently inoculated over the scar with a pipette tip, respectively. Wound size was recorded for 8 days, and on the 8th day, the rats were euthanized, and wound tissue was removed aseptically to measure CFUs and for following hematoxylin and eosin (H&E) staining.
(a-d) Mouse skin wound infection models by MRSA T144 (n = 4 biologically independent animals per group). a Photographs of wounds treated with LI14 (5 μg and 10 μg) or in combination with ampicillin (5 + 5 μg) for 0, 4 and 8 days (scale bar, 1 cm). (b) The wound size at 0th, 4th and 8th day after infection by MRSA T144. (c) The subeschar bacterial colonies at 8th day. (d) H.E. staining for the histological change of skin wound at 8th day (scale bar, […]
(e-h) Mouse skin wound infection models by E. coli B2 (n = 4 biologically independent animals per group). (e) Photographs of wounds treated with LI14 (5 μg and 10 μg) or in combination with rifampicin for (5 + 5 μg) for 0, 4 and 8 days (scale bar, 1 cm). […]

S. aureus ATCC 29213 = assay: microbe, parasite or virus in culture; format: cell-based, Staphylococcus aureus; settings: ATCC 29213
In short: (§1)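 Standard CLSI broth microdilution (2021 guidelines) in MHB with exponential-phase inoculum.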

MRSA T144 [2] = assay: microbe, parasite or virus in culture; format: cell-based, Staphylococcus aureus; settings: T144
In short: as §1

[3] = test system: A. baumannii C222 (tet(X6)); assay: microbe, parasite or virus in culture; format: cell-based, Acinetobacter baumannii; settings: C222 (tet(X6))
In short: as §1

A. baumannii ATCC 19609 = assay: microbe, parasite or virus in culture; format: cell-based, Acinetobacter baumannii; settings: ATCC 19609
In short: as §1

E. coli CP131 (mcr-3) = assay: microbe, parasite or virus in culture; format: cell-based, Escherichia coli; settings: CP131 (mcr-3)
In short: as §1

E. coli G92 (mcr-1) = assay: microbe, parasite or virus in culture; format: cell-based, Escherichia coli; settings: G92 (mcr-1)
In short: as §1

E. coli 1F28 (tet(X4)) = assay: microbe, parasite or virus in culture; format: cell-based, Escherichia coli; settings: 1F28 (tet(X4))
In short: as §1

E. coli B3-1 (tet(X4)) = assay: microbe, parasite or virus in culture; format: cell-based, Escherichia coli; settings: B3-1 (tet(X4))
In short: as §1

E. coli G6 (blaNDM-5) = assay: microbe, parasite or virus in culture; format: cell-based, Escherichia coli; settings: G6 (blaNDM-5)
In short: as §1

E. coli C3 (blaNDM-1) = assay: microbe, parasite or virus in culture; format: cell-based, Escherichia coli; settings: C3 (blaNDM-1)
In short: as §1

Molecule `CC[C@H](C)[C@H](NC(=O)[C@H](CCCNC(=N)N)NC(=O)[C@H](CS)NC(=O)[C@H](CC(C)C)NC(=O)[C@H](CCCCN)NC(=O)[C@H](CCCCN)NC(=O)[C@H](CC(C)C)NC(=O)[C@@H](NC(=O)[C@H](CCCNC(=N)N)NC(=O)[C@H](CS)NC(=O)[C@H](CC(C)C)NC(=O)[C@H](CCCCN)NC(=O)[C@H](CCCCN)NC(=O)[C@@H](N)CC(C)C)[C@@H](C)CC)C(N)=O` [LI14] (H-LKKLCRILKKLCRI-NH2) has an MIC (MRSA T144 [1]; Control) of 4 µg/mL (≈ 2.32 µM), an MIC (MRSA T144 [1]; peptide preincubated 1 h at 40℃) of 4 µg/mL (≈ 2.32 µM) and an MIC (MRSA T144 [1]; peptide preincubated 1 h at 60℃) of 4 µg/mL (≈ 2.32 µM). For the same molecule, the MIC (MRSA T144 [1]; peptide preincubated 1 h at 80℃) was 4 µg/mL (≈ 2.32 µM), the MIC (MRSA T144 [1]; peptide preincubated 1 h at pH 8, readjusted to pH 7.2) was 4 µg/mL (≈ 2.32 µM) and the MIC (MRSA T144 [1]; peptide preincubated 1 h at pH 12, readjusted to pH 7.2) was 4 µg/mL (≈ 2.32 µM). For the same molecule, the MIC (MRSA T144 [1]; peptide preincubated 1 h with Pepsin 1 mg/mL) was 4 µg/mL (≈ 2.32 µM), the “Wound closure and number of colonies” value (MRSA T144 or E. coli B2) was “distinctly improved wound closure and decreased the number of colonies” and the MIC (S. aureus ATCC 29213) was 8 µg/mL (≈ 4.63 µM). For the same molecule, the MIC (MRSA T144 [2]) was 4 µg/mL (≈ 2.32 µM), the MIC [3] was 16 µg/mL (≈ 9.26 µM) and the MIC (A. baumannii ATCC 19609) was 8 µg/mL (≈ 4.63 µM). It also gave an MIC (E. coli CP131 (mcr-3)) of 4 µg/mL (≈ 2.32 µM), an MIC (E. coli G92 (mcr-1)) of 8 µg/mL (≈ 4.63 µM) and an MIC (E. coli 1F28 (tet(X4))) of 8 µg/mL (≈ 4.63 µM). It also gave an MIC (E. coli B3-1 (tet(X4))) of 8 µg/mL (≈ 4.63 µM), an MIC (E. coli G6 (blaNDM-5)) of 4 µg/mL (≈ 2.32 µM) and an MIC (E. coli C3 (blaNDM-1)) of 4 µg/mL (≈ 2.32 µM).
